Measurements taken from publication PMC2630467 (Journal of medicinal chemistry, 2008).
Entries after “also recorded” stand apart in the source; their conditions may differ.

Tests used:
[1] = biological target: T1, CYP2C9 (Homo sapiens, UniProt P11712); assay: UV difference spectroscopy of binding and substrate titrations with purified 2C9; conditions: UV difference spectra 350-500 nm
[2] = biological target: T1, CYP2C9; assay: Reconstituted purified 2C9 system inhibition; type: biochemical
[3] = biological target: T1, CYP2C9; assay: EPR studies on binding modes with ferric 2C9; conditions: ferric 2C9 18.5 μM, substrate 1 mM, 20 K

T1 sequence (P11712 whole entry): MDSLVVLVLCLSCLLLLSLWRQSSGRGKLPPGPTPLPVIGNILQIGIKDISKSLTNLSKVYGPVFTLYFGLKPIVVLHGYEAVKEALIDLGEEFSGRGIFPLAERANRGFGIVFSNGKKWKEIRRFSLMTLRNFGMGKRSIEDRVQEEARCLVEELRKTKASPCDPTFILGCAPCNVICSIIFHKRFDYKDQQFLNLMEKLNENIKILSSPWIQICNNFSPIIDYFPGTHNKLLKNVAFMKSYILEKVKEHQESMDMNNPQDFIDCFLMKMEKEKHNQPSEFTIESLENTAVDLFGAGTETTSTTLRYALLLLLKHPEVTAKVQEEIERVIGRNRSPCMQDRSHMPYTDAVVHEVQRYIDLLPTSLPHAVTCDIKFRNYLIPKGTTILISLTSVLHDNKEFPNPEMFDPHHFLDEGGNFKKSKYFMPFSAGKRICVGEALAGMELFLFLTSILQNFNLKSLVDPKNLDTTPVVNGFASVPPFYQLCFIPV

| Binding Type UV [1] | Ki [2] [nM] | Binding Type EPR [3] | Structure (SMILES) |
| --- | --- | --- | --- |
| mixed Type II and Type I binding modes |  |  | O=C(Nc1ccccc1)c1cc(-c2cccnc2)nc2ccccc12 [Compound 14, N-phenyl-2-(pyridin-3-yl)quinoline-4-carboxamide] |
| mixed Type I and Type II binding |  | Type I | O=C(c1cc(-c2cccnc2)nc2ccccc12)N1CCCCC1 [Compound 2, Piperidin-1-yl(2-(pyridin-3-yl)quinolin-4-yl)methanone] |
|  |  | Type I | Cc1cc(C)c2nc(-c3cccnc3)cc(C(=O)Nc3ccc4ccccc4c3)c2c1 [Compound 17, 6,8-dimethyl-N-(naphthalen-2-yl)-2-(pyridin-3-yl)quinoline-4-carboxamide] |
|  |  | Type I | O=C(Nc1ccc2ccccc2c1)c1cc(-c2cccnc2)nc2ccccc12 [Compound 8, N-(naphthalen-2-yl)-2-(pyridin-3-yl)quinoline-4-carboxamide] |
|  |  | Type I | Cc1cc(C)c2nc(-c3ccccn3)cc(C(=O)Nc3ccc4ccccc4c3)c2c1 [Compound 18, 6,8-dimethyl-N-(naphthalen-2-yl)-2-(pyridin-2-yl)quinoline-4-carboxamide] |
| typical Type II binding spectra |  | Type II | O=C(c1cc(-c2ccncc2)nc2ccccc12)N1CCCCC1 [Compound 1, Piperidin-1-yl(2-(pyridin-4-yl)quinolin-4-yl)methanone] |
|  |  | Type I | O=C(Nc1ccc2ccccc2c1)c1cc(-c2ccccn2)nc2ccccc12 [Compound 9, N-(naphthalen-2-yl)-2-(pyridin-2-yl)quinoline-4-carboxamide] |

| Structure (SMILES) | Binding Type UV [1] | Ki [2] [nM] | Binding Type EPR [3] |
| --- | --- | --- | --- |
| O=C(Nc1ccccc1)c1cc(-c2ccncc2)nc2ccccc12 [Compound 13, N-phenyl-2-(pyridin-4-yl)quinoline-4-carboxamide] | clear Type II binding spectra; also recorded: typical Type II binding spectra | 79.8 |  |
| O=C(Nc1ccccc1)c1cc(-c2ccccn2)nc2ccccc12 [Compound 15, N-phenyl-2-(pyridin-2-yl)quinoline-4-carboxamide] | does not give a either a Type I or Type II binding spectra |  |  |
| O=C(Nc1ccc2ccccc2c1)c1cc(-c2ccncc2)nc2ccc(Cl)cc12 [Compound 19, 6-chloro-N-(naphthalen-2-yl)-2-(pyridin-4-yl)quinoline-4-carboxamide] |  |  | low-spin shift; also recorded: mixed mode; also recorded: Type II/Type I |
| O=C(Nc1ccc2ccccc2c1)c1cc(-c2ccncc2)nc2ccccc12 [Compound 7, N-(naphthalen-2-yl)-2-(pyridin-4-yl)quinoline-4-carboxamide] |  |  | low-spin shift; also recorded: pure Type II |
